Test results published in patent publication US20090137616A1, “METHOD FOR THE CONTROL OF PHYTOPATHOGENIC FUNGI” (Syngenta Crop Protection, Inc., priority 2004, published 2009).

Assays:
P. ultimum = experiment: Greenhouse seed treatment efficacy, Pioneer hybrid 34M95 seeds in Pythium-infested soil; assay type: in vivo; details: vs uninoculated seeds
Source text: Seeds of the Pioneer hybrid 34M95 were untreated and treated with mefenoxam, azoxystrobin or trifloxystrobin at the rates described in Table 3. To test the efficacy of the seed treatment fungicides pasteurized soil was infested with each isolate of Pythium at a rate of 7.8% (volume of inoculum/volume of soil). All these studies were done under greenhouse conditions, and data presented as a comparison against uninoculated seeds.

Pythium = experiment: Sensitivity of Pythium isolates to phenylamide and strobilurin fungicides (summary); assay type: cell-based; details: isolates from several species of Pythium that are insensitive to mefenoxam
Description: Plant and soil samples were collected from fields where plant stand establishment issues appeared to be increasing when using standard mefenoxam or metalaxyl seed treatment fungicide programs. Fungal pathogens were isolated from the plant and soil material. Pythium species were identified and studies were conducted to determine the sensitivity of these fungal pathogens to phenylamide and strobilurin fungicides. It can be seen that isolates from several species of Pythium that are insensitive to mefenoxam are sensitive to azoxystrobin or trifloxystrobin.

[1] = P. ultimum 03-047, seed treatment 2 g a.i/100 KgSeeds
[2] = P. ultimum 03-795, seed treatment 2 g a.i/100 KgSeeds
[3] = P. ultimum 03-047, seed treatment 5 g a.i/100 KgSeeds
[4] = P. ultimum 03-795, seed treatment 5 g a.i/100 KgSeeds
[5] = P. ultimum 03-047, seed treatment 1 g a.i/100 KgSeeds
[6] = P. ultimum 03-795, seed treatment 1 g a.i/100 KgSeeds

Compound	% fresh weight reduction (P. ultimum; [1]) [%]	% stand reduction (P. ultimum; [1]) [%]	% fresh weight reduction (P. ultimum; [2]) [%]	% stand reduction (P. ultimum; [2]) [%]	sensitivity of mefenoxam-insensitive Pythium isolates (Pythium)	% fresh weight reduction (P. ultimum; [3]) [%]	% stand reduction (P. ultimum; [3]) [%]	% fresh weight reduction (P. ultimum; [4]) [%]	% stand reduction (P. ultimum; [4]) [%]	% fresh weight reduction (P. ultimum; [5]) [%]	% stand reduction (P. ultimum; [5]) [%]	% fresh weight reduction (P. ultimum; [6]) [%]	% stand reduction (P. ultimum; [6]) [%]
COCC(=O)N(c1c(C)cccc1C)[C@H](C)C(=O)OC [Mefenoxam, mefenoxam]	5.2	6.7	15.3	6.7	–	–	–	–	–	–	–	–	–
CON=C(C(=O)OC)c1ccccc1CON=C(C)c1cccc(C(F)(F)F)c1 [Trifloxystrobin, trifloxystrobin]	–	–	–	–	sensitive	0.0	0.0	24.1	6.7	–	–	–	–
CO/C=C(/C(=O)OC)c1ccccc1Oc1cc(Oc2ccccc2C#N)ncn1 [Azoxystrobin, azoxystrobin]	–	–	–	–	sensitive	–	–	–	–	7.9	0.0	24.7	6.7
